Consider 25 compounds from patent US12091425B2 (AMGEN INC., priority 2016, dated 2024).

pIC50: −log10 of the molar value.

T1 sequence (Q07820 171-327): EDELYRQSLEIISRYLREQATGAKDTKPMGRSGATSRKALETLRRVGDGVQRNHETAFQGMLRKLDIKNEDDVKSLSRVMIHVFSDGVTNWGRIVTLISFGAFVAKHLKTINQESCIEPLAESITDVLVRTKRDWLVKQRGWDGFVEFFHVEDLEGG

One assay concerns the target T1, Mcl-1/Bim interaction, recombinant human Mcl-1 (171-327) (Homo sapiens, UniProt Q07820).
T1 construct: made in house
As to the kind of experiment: Cell free Mcl-1: Bim Affinity Assay (Mcl-1 HTRF). The settings on record: TR-FRET, 0.1 nM Mcl-1 (171-327), 0.05 nM biotin-Bim (51-76). The format is binding. The method in brief: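 Biotin-Bim(51-76) peptide, TR-FRET readout, overnight incubation; IC50 from duplicate competition curves, 4-parameter fit.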
For orientation: TR-FRET usually uses a lanthanide donor and a delayed reading to cut background.
For orientation: pIC50 means the IC50 on a negative log10 scale, so that one unit is a factor of ten. As for `CC[C@@H]1CC[C@@H](O)/C=C/[C@@H]2CC[C@H]2CN2C[C@@]3(CCCc4cc(Cl)ccc43)COc3ccc(cc32)C(=O)NS1(=O)=O` (single isomer, unassigned) [Example 198], the pIC50 was 8.49.

On to `C[C@@H]1CC/C=C/[C@H](O)[C@]2(C)CC[C@H]2CN2C[C@@]3(CCCc4cc(Cl)ccc43)COc3ccc(cc32)C(=O)NS1(=O)=O` (single isomer, unassigned) [Example 118], for which the pIC50 is 7.46.

As to `CCC[C@@H]1CC/C=C/[C@H](O)[C@@H]2CC[C@H]2CN2C[C@@]3(CCCc4cc(Cl)ccc43)COc3ccc(cc32)C(=O)NS1(=O)=O` (single isomer, unassigned) [Example 434], the pIC50 was 9.56.

For `O=C1NS(=O)(=O)C/C=C/[C@H](O)[C@@H]2CC[C@H]2CN2C[C@@]3(CCCc4cc(Cl)ccc43)COc3ccc1cc32` [Example 341, (1S,3′R,6′R,7′S,8′E)-6-chloro-7′-hydroxy-3,4-dihydro-2H,13′H-spiro[naphthalene-1,20′-[18]oxa[11]thia[1,12]diazatetracyclo[12.7.2.0^3,6.0^17,22]tricosa[8,14,16,22]tetraen]-13′-one 11′,11′-dioxide], the pIC50 is 8.15.

For the compound `CC[C@@H]1CC/C=C/[C@H](NC(=O)C(C)C)[C@@H]2CC[C@H]2CN2C[C@@]3(CCCc4cc(Cl)ccc43)COc3ccc(cc32)C(=O)NS1(=O)=O` [Example 1077, N-((1S,3′R,6′R,7′S,8′E,12′R)-6-chloro-12′-ethyl-13′,13′-dioxido-15′-oxo-3,4-dihydro-2H-spiro[naphthalene-1,22′-[20]oxa[13]thia[1,14]diazatetracyclo[14.7.2.0^3,6.0^19,24]pentacosa [8,16,18,24]tetraen]-7′-yl)-2-methylpropanamide], the negative logarithm of the IC50 (pIC50) was 8.46.

Turning to `O=C1NS(=O)(=O)CCC[C@H](O)[C@@H]2CC[C@H]2CN2C[C@@]3(CCCc4cc(Cl)ccc43)COc3ccc1cc32` [Example 342, (1S,3′R,6′R,7′S)-6-chloro-7′-hydroxy-3,4-dihydro-2H,13′H-spiro[naphthalene-1,20′-[18]oxa[11]thia[1,12]diazatetracyclo[12.7.2.0^3,6.0^17,22]tricosa[14,16,22]trien]-13′-one 11′,11′-dioxide], the pIC50 is 8.30.

As to `CCC1CCC=CC(OC(C)C(=O)N(C)C)C2CCC2CN2CC3(CCCc4cc(Cl)ccc43)COc3ccc(cc32)C(=O)NS1(=O)=O` (mixture of isomers) [Example 985], the pIC50 is 8.83.

For `CNC(=O)CO[C@H]1/C=C/CC[C@@H](C)S(=O)(=O)NC(=O)c2ccc3c(c2)N(C[C@@H]2CC[C@H]21)C[C@@]1(CCCc2cc(Cl)ccc21)CO3` [Example 404, 2-(((1S,3′R,6′R,7′S,8′E,12′R)-6-chloro-12′-methyl-13′,13′-dioxido-15′-oxo-3,4-dihydro-2H-spiro[naphthalene-1,22′-[20]oxa[13]thia[1,14]diazatetracyclo[14.7.2.0^3,6.0^19,24]pentacosa [8,16,18,24]tetraen]-7′-yl)oxy)-N-methylacetamide], the pIC50 was 9.36.

Regarding `C[C@@H]1CC/C=C/[C@H](O)[C@]2(C)CC[C@H]2CN2C[C@@]3(CCCc4cc(Cl)ccc43)COc3ccc(cc32)C(=O)NS1(=O)=O` (single isomer, unassigned) [Example 116], the negative logarithm of the IC50 (pIC50) is 9.07.

The assay is the same for the next values; noted with them: cell free Mcl-1:Bim TR-FRET, recombinant human Mcl-1 (171-327).
As for `CC[C@@H]1C/C=C/[C@H](OC)[C@@H]2CC[C@H]2CN2C[C@@]3(CCCc4cc(Cl)ccc43)COc3ccc(cc32)C(=O)NS1(=O)=O` [Example 763, (1S,3′R,6′R,7′S,8′E,11′R)-6-chloro-11′-ethyl-7′-methoxy-3,4-dihydro-2H,14′H-spiro[naphthalene-1,21′-[19]oxa[12]thia[1,13]diazatetracyclo[13.7.2.0^3,6.0^18,23]tetracosa[8,15,17,23]tetraen]-14′-one 12′,12′-dioxide], the pIC50 was 8.53.

`C[C@@H]1CCC[C@H](O)[C@@H]2CC[C@H]2CN2C[C@@]3(CCCc4cc(Cl)ccc43)COc3ccc(cc32)C(=O)NS1(=O)=O` [Example 761, (1S,3′R,6′R,7′S,11′R)-6-chloro-7′-hydroxy-11′-methyl-3,4-dihydro-2H,14′H-spiro[naphthalene-1,21′-[19]oxa[12]thia[1,13]diazatetracyclo[13.7.2.0^3,6.0^18,23]tetracosa[15,17,23]trien]-14′-one 12′,12′-dioxide]: the pIC50 is 8.75.

For the compound `CC[C@@H]1CCCC[C@H](O)[C@@H]2CC[C@H]2CN2C[C@@]3(CCc4cc(Cl)ccc43)COc3ccc(cc32)C(=O)NS1(=O)=O` (single isomer, unassigned) [Example 695, (1S,3′R,6′R,7′S,12′R)-5-chloro-12′-ethyl-7′-hydroxy-2,3-dihydro-15′H-spiro[indene-1,22′-[20]oxa[13]thia[1,14]diazatetracyclo[14.7.2.0^3,6.0^19,24]pentacosa [16,18,24]trien]-15′-one 13′,13′-dioxide or (1S,3′R,6′R,7′S,12′S)-5-chloro-12′-ethyl-7′-hydroxy-2,3-dihydro-15′H-spiro[indene-1,22′-[20]oxa[13]thia[1,14]diazatetracyclo[14.7.2.0^3,6.0^19,24]pentacosa [16,18,24]trien]-15′-one 13′,13′-dioxide], the pIC50 was 8.69.

Regarding `CC1COCCC(O)C2CCC2CN2CC3(CCCc4cc(Cl)ccc43)COc3ccc(cc32)C(=O)NS1(=O)=O` (single isomer, unassigned) [Example 861], the pIC50 was 8.80.

`O=C1NS(=O)(=O)CCCCC[C@@H](O)[C@@H]2CC[C@H]2CN2C[C@@]3(CCCc4cc(Cl)ccc43)COc3ccc1cc32` [Example 843, (1S,3′R,6′R,7′R)-6-chloro-7′-hydroxy-3,4-dihydro-2H,15′H-spiro[naphthalene-1,22′-[20]oxa[13]thia[1,14]diazatetracyclo[14.7.2.0^3,6.0^19,24]pentacosa [16,18,24]trien]-15′-one 13′,13′-dioxide]: the pIC50 was 8.17.

Regarding `O=C1NS(=O)(=O)C[C@H](c2ccccc2)C/C=C/[C@H](O)[C@@H]2CC[C@H]2CN2C[C@@]3(CCCc4cc(Cl)ccc43)COc3ccc1cc32` (single isomer, unassigned) [Example 704], the pIC50 is 7.39.

Regarding `C=C1[C@@H](O)[C@H](O)CC[C@@H](CC)S(=O)(=O)NC(=O)c2ccc3c(c2)N(C[C@@H]2CC[C@@H]12)C[C@@]1(CCCc2cc(Cl)ccc21)CO3` (single isomer, unassigned) [Example 877], the pIC50 was 7.58.

Take “N-((1S,3′R,6′R,7′S)-6-chloro-13′,13′-dioxido-15′-oxo-3,4-dihydro-2H-spiro[naphthalene-1,22′-[20]oxa[13]thia[1,14]diazatetracyclo[14.7.2.0^3,6.0^19,24]pentacosa [16,18,24]trien]-7′-yl)acetamide or N-((1S,3′R,6′R,7′R)-6-chloro-13′,13′-dioxido-15′-oxo-3,4-dihydro-2H-spiro[naphthalene-1,22′-[20]oxa[13]thia[1,14]diazatetracyclo[14.7.2.0^3,6.0^19,24]pentacosa [16,18,24]trien]-7′-yl)acetamide [Example 934]”: the pIC50 was 8.68.

As to `O=C1NS(=O)(=O)CC/C=C\C[C@@H](O)[C@@H]2CC[C@H]2CN2C[C@@]3(CCCc4cc(Cl)ccc43)COc3ccc1cc32` (single isomer, unassigned) [Example 845], the pIC50 is 8.36.

For `C[C@@H]1C[C@@H]2C[C@@H](O1)[C@@H]1CC[C@H]1CN1C[C@@]3(CCCc4cc(Cl)ccc43)COc3ccc(cc31)C(=O)NS(=O)(=O)CCO2` (single isomer, unassigned) [Example 876], the pIC50 is 7.74.

Regarding `CC[C@@H]1/C=C/C[C@H](O)[C@@H]2CC[C@H]2CN2C[C@@]3(CCCc4cc(Cl)ccc43)COc3ccc(cc32)C(=O)NS1(=O)=O` (single isomer, unassigned) [Example 766], the pIC50 is 8.19.

On to `O=C1NS(=O)(=O)CCCOC[C@H](O)[C@@H]2CC[C@H]2CN2C[C@@]3(CCCc4cc(Cl)ccc43)COc3ccc1cc32` (single isomer, unassigned) [Example 870, (3R,6R,7R,22S)-6′-chloro-7-hydroxy-3′,4′-dihydro-2′H,15H-spiro[9,20-dioxa-13-thia-1,14-diazatetracyclo[14.7.2.0^3,6.0^19,24]pentacosa-16,18,24-triene-22,1′-naphthalen]-15-one 13,13-dioxide or (3R,6R,7S,22S)-6′-chloro-7-hydroxy-3′,4′-dihydro-2′H,15H-spiro[9,20-dioxa-13-thia-1,14-diazatetra-cyclo[14.7.2.0^3,6.0^19,24]pentacosa-16,18,24-triene-22,1′-naphthalen]-15-one 13,13-dioxide], for which the pIC50 was 8.08.

As to `O=C1NS(=O)(=O)C[C@@H](C2CC2)C/C=C/[C@H](O)[C@@H]2CC[C@H]2CN2C[C@@]3(CCCc4cc(Cl)ccc43)COc3ccc1cc32` (single isomer, unassigned) [Example 684], the pIC50 is 7.96.

On to `O=C1NS(=O)(=O)CC/C=C/CC(=O)[C@@H]2CC[C@H]2CN2C[C@@]3(CCCc4cc(Cl)ccc43)COc3ccc1cc32` [Example 905, (1S,3′R,6′R,9′E)-6-chloro-3,4-dihydro-2H,7′H,15′H-spiro[naphthalene-1,22′-[20]oxa[13]thia[1,14]diazatetracyclo[14.7.2.0^3,6.0^19,24]pentacosa [9,16,18,24]tetraene]-7′,15′-dione 13′,13′-dioxide], for which the pIC50 was 7.85.

`O=C1C[C@H](O)[C@@H]2CC[C@H]2CN2C[C@@]3(CCCc4cc(Cl)ccc43)COc3ccc(cc32)C(=O)NS(=O)(=O)CCN1` (single isomer, unassigned) [Example 680]: the pIC50 is 7.57.

Turning to `CC[C@H]1CC/C=C/[C@H](O)[C@@H]2CC[C@H]2CN2C[C@@]3(CCc4cc(Cl)ccc43)COc3ccc(cc32)C(=O)NS1(=O)=O` (single isomer, unassigned) [Example 699], the pIC50 is 9.19.
